In patent US20140090094A1, “MODULATORS OF SLC22A7” (BAYER INTELLECTUAL PROPERTY GmbH, priority 2011, published 2014):
Values joined by “and” are separate entries in the source; they are usually repeats but may differ in a detail not shown here. Equal values may be shown once. One block for each molecule: values may come before it.

Tests used:
OAT2h = target: T1, OAT2h (Homo sapiens, UniProt Q9Y694); assay: intracellular glutamate content of 293 cells expressing OAT2h versus uninduced control cells; type: cell-based; conditions: n=2
T1 construct: expressed in transfected cells; host or cells: 293 cells (HEK-293), pEBTetD/OAT2h, doxycycline-inducible
T1 sequence (Q9Y694 1-546 isoform Q9Y694-2): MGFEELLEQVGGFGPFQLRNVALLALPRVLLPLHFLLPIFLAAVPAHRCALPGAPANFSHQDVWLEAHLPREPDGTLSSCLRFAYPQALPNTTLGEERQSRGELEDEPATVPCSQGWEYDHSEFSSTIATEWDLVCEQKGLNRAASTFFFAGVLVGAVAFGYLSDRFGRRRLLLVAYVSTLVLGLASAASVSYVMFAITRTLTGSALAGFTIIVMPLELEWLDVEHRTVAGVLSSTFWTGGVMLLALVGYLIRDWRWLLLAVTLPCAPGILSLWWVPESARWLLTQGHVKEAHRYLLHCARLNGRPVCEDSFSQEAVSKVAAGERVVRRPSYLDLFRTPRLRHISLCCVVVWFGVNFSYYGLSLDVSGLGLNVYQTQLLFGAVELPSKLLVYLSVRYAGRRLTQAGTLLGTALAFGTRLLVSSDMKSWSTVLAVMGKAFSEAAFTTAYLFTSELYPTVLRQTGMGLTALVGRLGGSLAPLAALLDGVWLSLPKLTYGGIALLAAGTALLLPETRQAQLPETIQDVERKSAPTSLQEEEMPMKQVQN

OAT2r [1] = target: T2, OAT2r (Rattus norvegicus, UniProt Q5RLM2); assay: intracellular glutamate content of 293 cells expressing OAT2r versus uninduced control cells; type: cell-based; conditions: n=4
T2 construct: expressed in transfected cells
T2 sequence (Q5RLM2 1-535): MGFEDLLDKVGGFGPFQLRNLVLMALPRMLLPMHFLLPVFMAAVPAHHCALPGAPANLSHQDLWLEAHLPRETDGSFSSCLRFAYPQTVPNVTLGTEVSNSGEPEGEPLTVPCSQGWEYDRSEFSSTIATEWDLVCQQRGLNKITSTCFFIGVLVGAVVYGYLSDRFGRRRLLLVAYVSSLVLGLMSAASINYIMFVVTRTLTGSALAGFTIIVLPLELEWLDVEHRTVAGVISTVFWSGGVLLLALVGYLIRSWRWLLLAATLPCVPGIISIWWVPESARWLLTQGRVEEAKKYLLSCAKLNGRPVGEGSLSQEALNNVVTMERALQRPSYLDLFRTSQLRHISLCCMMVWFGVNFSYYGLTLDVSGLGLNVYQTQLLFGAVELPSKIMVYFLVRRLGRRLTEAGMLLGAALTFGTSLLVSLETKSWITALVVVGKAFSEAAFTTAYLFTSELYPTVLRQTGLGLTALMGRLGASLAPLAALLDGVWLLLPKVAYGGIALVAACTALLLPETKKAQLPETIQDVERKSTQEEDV

[2] = cited from earlier work
OAT2r [3] = target: T2, OAT2r; assay: 24 h accumulation in lysates of OAT2r-expressing versus control cells (LC-MS/MS); type: cell-based; conditions: 24 h incubation, compound at 100 μmol/l
Protocol: (§1) A substrate search by LC-MS difference shading was performed with 293 cells stably transfected to express OAT2 from rat. […] To verify that trigonelline is directly transported by OAT2 and not just increased indirectly, initial rates of uptake (1 min, 37° C.) of trigonelline (10 μmol/l) were determined by LC-MS/MS.
With trigonelline as substrate lead, compounds wholly or partly related in structure were analyzed for transport by OAT2 from rat.
After centrifugation (1 min, 16000×g, 20° C.) of thawed lysates, 100 μl of the supernatant was mixed with either 10 μl unlabeled MPP+ iodide (0.5 ng/μl) or biphenyl-4-carboxylic acid (Sigma-Aldrich) as internal standard. Of this mixture, […] were analyzed by LCMS/MS on a triple quadrupole mass spectrometer (4000 Q TRAP, Applied Biosystems, Darmstadt, Germany). […] Atmospheric pressure ionization with positive or negative electrospray was used. For quantification (scan time 150 ms), the optimal collision energy for argon-induced fragmentation in the second quadrupole was determined for each analyte. […] Linear calibration curves were constructed from at least six standards which were prepared using control cell lysates as solvent. Sample analyte content was calculated from the analyte response ratio and the slope of the calibration curve, obtained by linear regression. With LC-MS quantitation, solute content of cell lysates was determined for 4 conditions ([…]): a) transporter expression on, uptake buffer; b) expression off, uptake buffer; c) expression on, substrate in uptake buffer; d) expression off, substrate in uptake buffer. Acute uptake mediated by heterologously expressed carrier was then calculated as (c−a)−(d−b). This approach takes into account endogenous solute content and non-specific uptake. Protein was measured by the BCA assay (Pierce) with bovine serum albumin as standard. The protein content of MS samples was estimated from 3 matched cell dishes.

OAT2h splice variant = OAT2h splice variant (Homo sapiens, UniProt Q9Y694); conditions: 24 h incubation, 100 μmol/l in uptake buffer
Protocol: as §1
After centrifugation (1 min, 16000×g, 20° C.) of thawed lysates, 100 μl of the supernatant was mixed with either 10 μl unlabeled MPP+ iodide (0.5 ng/μl) or biphenyl-4-carboxylic acid (Sigma-Aldrich) as internal standard. Of this mixture, […] were analyzed by LCMS/MS on a triple quadrupole mass spectrometer (4000 Q TRAP, Applied Biosystems, Darmstadt, Germany). […] For quantification (scan time 150 ms), the optimal collision energy for argon-induced fragmentation in the second quadrupole was determined for each analyte. […] Sample analyte content was calculated from the analyte response ratio and the slope of the calibration curve, obtained by linear regression. With LC-MS quantitation, solute content of cell lysates was determined for 4 conditions (paired dishes, incubation time 1 min): a) transporter expression on, uptake buffer; b) expression off, uptake buffer; c) expression on, substrate in uptake buffer; d) expression off, substrate in uptake buffer. Acute uptake mediated by heterologously expressed carrier was then calculated as (c−a)−(d−b). […]

SMILES: N[C@@H](CCC(=O)O)C(=O)O [glutamate]
intracellular glutamate content versus uninduced control cells (factor f) (OAT2h): 0.60±0.09
intracellular glutamate content versus uninduced control cells (factor f) (OAT2r [1]): 0.55±0.11

SMILES: O=C(O)c1cc(=O)[nH]c(=O)[nH]1 [orotic acid]
pKa [2]: ≈ 2.4

increase in OAT2r cell lysates versus control cells (factor f) (OAT2r [3]): 8.1 and 4.7
increase in cell lysates versus control cells (factor f) (OAT2h splice variant): 3.9
SMILES: C[n+]1cccc(C(=O)[O-])c1 [trigonelline]
